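In this assay, cells in 96-well plates receive the compound at five concentrations for 48 hours. Endpoints are linearly interpolated between the surrounding concentrations. GI50 = concentration required for 50% inhibition of growth.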 The source made the active and inactive calls. Rule as the data show it: active = GI50 up to about 1.1 µM and inactive = higher.
Tests used:
Test in all cases: NCI anticancer screen, dose series, 48 h
786-0 = tested on: 786-0
A498 = tested on: A498
ACHN = tested on: ACHN
HCT-116 = tested on: HCT-116
HOP-62 = tested on: HOP-62
HOP-92 = tested on: HOP-92
IGROV-1 = tested on: IGROV-1
MCF7 = tested on: MCF7
MDA-MB-231 = tested on: MDA-MB-231
Malme-3M = tested on: Malme-3M
NCI-H226 = tested on: NCI-H226
OVCAR-3 = tested on: OVCAR-3
OVCAR-5 = tested on: OVCAR-5
RXF 393 = tested on: RXF 393
SF-268 = tested on: SF-268
SF-539 = tested on: SF-539
SK-MEL-2 = tested on: SK-MEL-2
U-251 = tested on: U-251
UACC-62 = tested on: UACC-62
SR = tested on: SR

Row | SMILES | GI50 (786-0) | GI50 (A498) | GI50 (ACHN) | GI50 (HCT-116) | GI50 (HOP-62) | GI50 (HOP-92) | GI50 (IGROV-1) | GI50 (MCF7) | GI50 (MDA-MB-231) | GI50 (Malme-3M) | GI50 (NCI-H226) | GI50 (OVCAR-3) | GI50 (OVCAR-5) | GI50 (RXF 393) | GI50 (SF-268) | GI50 (SF-539) | GI50 (SK-MEL-2) | GI50 (U-251) | GI50 (UACC-62) | GI50 (SR)
1 | O=C(/C=C/c1ccc(O)cc1)c1cc(O)cc(O)c1 | 16.6 µM (inactive) | 14.9 µM (inactive) | 6.79 µM (inactive) | 13.2 µM (inactive) | 15.6 µM (inactive) | 14.3 µM (inactive) | 13.7 µM (inactive) | 3.54 µM (inactive) | 15.5 µM (inactive) | 20.4 µM (inactive) | 24.1 µM (inactive) | 15.3 µM (inactive) | 13.8 µM (inactive) | 15.8 µM (inactive) | 19.8 µM (inactive) | 13.5 µM (inactive) | 18.1 µM (inactive) | 14.5 µM (inactive) | 10.4 µM (inactive) | –
2 | C/C(=N/NC(N)=S)c1ccc[nH]1 | > 100 µM (inactive) | > 100 µM (inactive) | > 100 µM (inactive) | > 100 µM (inactive) | > 100 µM (inactive) | > 100 µM (inactive) | > 100 µM (inactive) | > 100 µM (inactive) | > 100 µM (inactive) | > 100 µM (inactive) | > 100 µM (inactive) | > 100 µM (inactive) | > 100 µM (inactive) | > 100 µM (inactive) | > 100 µM (inactive) | > 100 µM (inactive) | > 100 µM (inactive) | > 100 µM (inactive) | > 100 µM (inactive) | –
3 | NCCNC(=S)S | 33.8 µM (inactive) | > 100 µM (inactive) | > 100 µM (inactive) | > 100 µM (inactive) | > 100 µM (inactive) | – | > 100 µM (inactive) | > 100 µM (inactive) | > 100 µM (inactive) | 11.9 µM (inactive) | > 100 µM (inactive) | 52.7 µM (inactive) | > 100 µM (inactive) | > 100 µM (inactive) | 4.9 µM (inactive) | – | > 100 µM (inactive) | > 100 µM (inactive) | > 100 µM (inactive) | –
4 | Cc1ccccc1-n1c(CCl)nc2ccc(Br)cc2c1=O | 8.17 µM (inactive) | 30.1 µM (inactive) | 30.1 µM (inactive) | 9.53 µM (inactive) | 23.4 µM (inactive) | 12.8 µM (inactive) | 14.3 µM (inactive) | – | – | 17.3 µM (inactive) | 8.87 µM (inactive) | 14.2 µM (inactive) | 24.4 µM (inactive) | 10.2 µM (inactive) | 3.21 µM (inactive) | 7.16 µM (inactive) | 14.6 µM (inactive) | 13.2 µM (inactive) | 4.4 µM (inactive) | 3.73 µM (inactive)
5 | N=C(N)C1CN(CCc2c[nH]cn2)C(=O)NC1=O (stereo unspecified) | > 100 µM (inactive) | > 100 µM (inactive) | > 100 µM (inactive) | > 100 µM (inactive) | > 100 µM (inactive) | > 100 µM (inactive) | > 100 µM (inactive) | > 100 µM (inactive) | – | 36 µM (inactive) | – | > 100 µM (inactive) | > 100 µM (inactive) | > 100 µM (inactive) | > 100 µM (inactive) | > 100 µM (inactive) | – | > 100 µM (inactive) | > 100 µM (inactive) | > 100 µM (inactive)
6 | Cc1nnc2sc(NN)nn12 | > 100 µM (inactive) | > 100 µM (inactive) | > 100 µM (inactive) | > 100 µM (inactive) | > 100 µM (inactive) | – | > 100 µM (inactive) | > 100 µM (inactive) | > 100 µM (inactive) | > 100 µM (inactive) | > 100 µM (inactive) | > 100 µM (inactive) | > 100 µM (inactive) | > 100 µM (inactive) | > 100 µM (inactive) | > 100 µM (inactive) | > 100 µM (inactive) | > 100 µM (inactive) | 77.4 µM (inactive) | –
7 | COCOc1ccc(C(=O)C(C)c2ccc(OCOC)cc2OCOC)c(O)c1 (stereo unspecified) | > 100 µM (inactive) | > 100 µM (inactive) | > 100 µM (inactive) | > 100 µM (inactive) | > 100 µM (inactive) | 48.1 µM (inactive) | > 100 µM (inactive) | 68.2 µM (inactive) | – | > 100 µM (inactive) | – | – | > 100 µM (inactive) | 37.2 µM (inactive) | > 100 µM (inactive) | > 100 µM (inactive) | – | > 100 µM (inactive) | > 100 µM (inactive) | 40.7 µM (inactive)
8 | Cc1nn(C(=O)Cc2ccccc2)c2c1C(c1ccc(/C=C/c3ccccc3)cc1)SC(=N)N2 (stereo unspecified) | > 100 µM (inactive) | > 100 µM (inactive) | > 100 µM (inactive) | > 100 µM (inactive) | > 100 µM (inactive) | – | > 100 µM (inactive) | > 100 µM (inactive) | > 100 µM (inactive) | > 100 µM (inactive) | > 100 µM (inactive) | – | – | – | > 100 µM (inactive) | > 100 µM (inactive) | – | – | > 100 µM (inactive) | –
9 | CC(Nc1ccc(Cl)c(Cl)c1)c1ccncc1 (stereo unspecified) | 29 µM (inactive) | 20.1 µM (inactive) | 19.1 µM (inactive) | 16.6 µM (inactive) | 20.9 µM (inactive) | 18.9 µM (inactive) | 25.4 µM (inactive) | 22.4 µM (inactive) | 16 µM (inactive) | 34.3 µM (inactive) | 17.9 µM (inactive) | 26.8 µM (inactive) | > 10 µM (inactive) | 17.6 µM (inactive) | 44 µM (inactive) | 30.8 µM (inactive) | 22.9 µM (inactive) | 19.9 µM (inactive) | – | –
10 | CCC1(CC)C(=O)N(C(=O)c2cc(OC)c(OC)c(OC)c2)N(C(=O)c2cc(OC)c(OC)c(OC)c2)C1=O | > 50 µM (inactive) | > 50 µM (inactive) | > 50 µM (inactive) | > 50 µM (inactive) | > 50 µM (inactive) | – | > 50 µM (inactive) | > 50 µM (inactive) | > 50 µM (inactive) | > 50 µM (inactive) | > 50 µM (inactive) | > 50 µM (inactive) | > 50 µM (inactive) | > 50 µM (inactive) | > 50 µM (inactive) | > 50 µM (inactive) | > 50 µM (inactive) | > 50 µM (inactive) | > 50 µM (inactive) | –
11 | Cc1cc(S(=O)(=O)O)ccc1/N=N/c1c(O)ccc2ccccc12 | > 100 µM (inactive) | – | > 100 µM (inactive) | > 100 µM (inactive) | > 100 µM (inactive) | > 100 µM (inactive) | > 100 µM (inactive) | – | > 100 µM (inactive) | > 100 µM (inactive) | > 100 µM (inactive) | > 100 µM (inactive) | > 100 µM (inactive) | > 100 µM (inactive) | > 100 µM (inactive) | – | > 100 µM (inactive) | > 100 µM (inactive) | > 100 µM (inactive) | –
12 | CCOP(=O)(/C=C\n1cnc2c(=O)n(C(C)=O)c(N)nc21)OCC | > 100 µM (inactive) | > 100 µM (inactive) | > 100 µM (inactive) | > 100 µM (inactive) | > 100 µM (inactive) | – | > 100 µM (inactive) | > 100 µM (inactive) | 69.7 µM (inactive) | – | > 100 µM (inactive) | > 100 µM (inactive) | > 100 µM (inactive) | > 100 µM (inactive) | – | > 100 µM (inactive) | – | > 100 µM (inactive) | > 100 µM (inactive) | –
13 | CC1=CCCC(C)(O)C2CC(CCC3(C)OC3CC1)C(C)C(=O)O2 (stereo unspecified) | > 100 µM (inactive) | > 100 µM (inactive) | > 100 µM (inactive) | > 100 µM (inactive) | – | > 10 µM (inactive) | > 100 µM (inactive) | > 100 µM (inactive) | > 100 µM (inactive) | > 100 µM (inactive) | > 100 µM (inactive) | > 100 µM (inactive) | > 100 µM (inactive) | – | > 100 µM (inactive) | > 100 µM (inactive) | > 100 µM (inactive) | > 100 µM (inactive) | > 100 µM (inactive) | –
14 | O=C(NCCCCCCCCCCCCNC(=O)c1cccc2ccccc12)c1cccc2ccccc12 | > 44.8 µM (inactive) | > 47.9 µM (inactive) | > 64 µM (inactive) | > 57.9 µM (inactive) | 2.98 µM (inactive) | > 52.2 µM (inactive) | > 55.3 µM (inactive) | – | – | > 92.3 µM (inactive) | > 49.9 µM (inactive) | > 45.9 µM (inactive) | > 100 µM (inactive) | > 100 µM (inactive) | > 100 µM (inactive) | 1.66 µM (inactive) | > 58.1 µM (inactive) | > 36.7 µM (inactive) | > 100 µM (inactive) | 47 µM (inactive)
15 | Cc1ccc(/C=N/NC2=NCCN2)s1 | > 100 µM (inactive) | – | > 100 µM (inactive) | > 100 µM (inactive) | > 100 µM (inactive) | > 100 µM (inactive) | > 100 µM (inactive) | > 100 µM (inactive) | > 100 µM (inactive) | > 100 µM (inactive) | 79.4 µM (inactive) | > 100 µM (inactive) | > 100 µM (inactive) | > 100 µM (inactive) | > 100 µM (inactive) | > 100 µM (inactive) | > 100 µM (inactive) | > 100 µM (inactive) | > 100 µM (inactive) | –
16 | CC[C@H]1C=CCC[C@@]2(C[C@@H]3CC[C@H]4[C@H](C(=O)OCCCCCCCCCCCCCCCC(=O)N(CCCN)C[C@@H](O)CCN)[C@]5(CCC[C@@H](C)O5)NC(=[N+]34)N2)O1 | 0.543 µM (active) | 1.45 µM (inactive) | 0.513 µM (active) | 0.344 µM (active) | 1.26 µM (inactive) | 0.318 µM (active) | 0.615 µM (active) | 0.421 µM (active) | – | 0.196 µM (active) | 1.04 µM (active) | 1.41 µM (inactive) | 0.429 µM (active) | 1.6 µM (inactive) | 1.11 µM (active) | 1.49 µM (inactive) | 0.53 µM (active) | 0.378 µM (active) | 0.202 µM (active) | 0.323 µM (active)

From ChEMBL document CHEMBL1201862, “PubChem BioAssay data set” (2004)
